Experiment: Molecular penetration into the brain after focused ultrasound (FUS) induced BBB opening
Conditions: in vivo
From the text: First, there are three testing substances, and their molecular size spreading from 1 to nearly 150 kDa are employed in second procedure. Three substances are Gd-DTPA, Evans blue, and Bevacizumab.
FIGS. 10A and 10B are about that selected the UEI ranging of 0.65 and 1.25 for testing, and under testing the center frequency of only 0.4 MHz is employed. FIG. 10A illustrates the measured molecular penetration (molecule 1-3) of different exposure conditions (UEI set to 0, 0.65, and 1.25). FIG. 10B illustrates the measured molecular penetration (molecule 1-3) of different molecular ranges (UEI set to 0, 0.65, and 1.25). These measurement results will be compared with the final predict results.
The molecule 1 has the highest penetration because of its small molecular size (1 kDa; the predicted concentration range is 1.7 to 6.2 μM during UEI ranging of 0.65-1.25). […]
Integrating of the UEI and the UII by above uniform and calibrated method steps, in this embodiment, it is possible to examine the three molecular penetrations reflecting to the four imaging indexes with different UEIs. Another experiment is conducted, the three molecular penetrations was measured (shown in FIG. 10), and comparing to the quantified predict results of the UEI. The correlation of UEI is evaluated under the UII.

| Compound | predicted concentration range (molecular penetration) [µM] |
| --- | --- |
| Cc1cc(-c2ccc(/N=N/c3ccc4c(S(=O)(=O)O)cc(S(=O)(=O)O)c(N)c4c3O)c(C)c2)ccc1/N=N/c1ccc2c(S(=O)(=O)O)cc(S(=O)(=O)O)c(N)c2c1O [molecule 2, Evans blue] | 0.7 to 3.1 |
| Bevacizumab [molecule 3] | 0.02 to 2.1 |
